Test results: publication PMC10584170, “Machine learning-based phenotypic imaging to characterise the targetable biology of Plasmodium falciparum male gametocytes for the development of transmission-blocking antimalarials” (PLOS Pathogens, 2023)
Where two headings read alike, the source gives them in different places.

Experiments:
[1] = tested on: P. falciparum female gametocytes; assay: P. falciparum Dual Gamete Formation Assay (PfDGFA), female readout (Pfs25-positive female gametes); assay type: cell-based, Plasmodium falciparum NF54; conditions: for Selectivity ratio F: HepG2 Tox50 versus female IC50; for inhibition at 2 µM / Average inhibition female (%) / % inhibition female (individual replicates) R1 / % inhibition female (individual replicates) R3 / % inhibition female (individual replicates) R4: 24h preincubation with gametocytes; for IC50: PfDGFA, 24 h incubation with gametocytes before induction, female gamete readout, read-out: Female IC50; for HitlevelF: number of replicates with >50% inhibition in the female readout
In short: (§1)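 Day-14 NF54 gametocytes were incubated with compound for 24 h at 37°C under 1% O2/3% CO2/96% N2. Gametogenesis was triggered with ookinete medium (0.1 μM xanthurenic acid) plus Cy3-anti-Pfs25, and exflagellation was imaged by brightfield after cooling to 4°C then 28°C. Females were imaged by Pfs25 fluorescence 24 h later at 28°C.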

HepG2 cells = assay: HepG2 cytotoxicity counter-screen; conditions: cytotoxic activity against HepG2 cells
[2] = tested on: P. falciparum male gametocytes; assay: P. falciparum Dual Gamete Formation Assay (PfDGFA), male readout (exflagellation); assay type: cell-based, Plasmodium falciparum NF54; conditions: for Selectivity Ratio M: HepG2 Tox50 versus male IC50; for inhibition at 2 µM / Average inhibition male (%) / % inhibition male (individual replicates) R1 / % inhibition male (individual replicates) R3 / % inhibition male (individual replicates) R4: 24h preincubation with gametocytes; for IC50: PfDGFA, 24 h incubation with gametocytes before induction, exflagellation readout, read-out: Male IC50; for HitlevelM: number of replicates with >50% inhibition in the male readout
In short: as §1

[3] = Plasmodium falciparum, 2µM, average of replicates, read-out: Average inhibition female (%)
[4] = Plasmodium falciparum, 2µM, replicate R1, read-out: % inhibition female (individual replicates) R1
[5] = Plasmodium falciparum, 2µM, replicate R2, read-out: % inhibition female (individual replicates) R2
[6] = Plasmodium falciparum, 2µM, replicate R3, read-out: % inhibition female (individual replicates) R3
[7] = Plasmodium falciparum, 2µM, replicate R4, read-out: % inhibition female (individual replicates) R4
[8] = Plasmodium falciparum, 2µM, average of replicates, read-out: Average inhibition male (%)
[9] = Plasmodium falciparum, 2µM, replicate R1, read-out: % inhibition male (individual replicates) R1
[10] = Plasmodium falciparum, 2µM, replicate R2, read-out: % inhibition male (individual replicates) R2
[11] = Plasmodium falciparum, 2µM, replicate R4, read-out: % inhibition male (individual replicates) R4
[12] = PfDGFA at 2µM, average of replicates

IC50 ([1]; Plasmodium falciparum)	IC50 ([2]; Plasmodium falciparum)	IC50 [1]	IC50 [2]	Structure (SMILES)	Selectivity ratio F [1]	inhibition at 2 µM [1, 3]	inhibition at 2 µM [1, 4]	inhibition at 2 µM [1, 5]	inhibition at 2 µM [1, 6]	inhibition at 2 µM [1, 7]	Tox50 (HepG2 cells)	Selectivity Ratio M [2]	inhibition at 2 µM [2, 8]	inhibition at 2 µM [2, 9]	inhibition at 2 µM [2, 10]	inhibition at 2 µM [2, 11]	Average inhibition female (%) ([1]; 2µM, average of replicates)	% inhibition female (individual replicates) R1 ([1]; 2µM, replicate R1)	% inhibition female (individual replicates) R3 ([1]; 2µM, replicate R3)	% inhibition female (individual replicates) R4 ([1]; 2µM, replicate R4)	other results
> 10 µM	0.42 µM	–	–	Cc1ccc(C(C(=O)Nc2ccc(N3CCNCC3)c(Cl)c2)c2ccccc2)cc1 (centres unmarked) [TCMDC-134292]	1.13	61.9%	54.2%	48.2%	79.2%	66%	11.32 µM	27.18	93.6%	96.8%	85.1%	94.1%	–	–	–	–	inhibition at 2 µM ([2]; Plasmodium falciparum, 2µM, replicate R3, read-out: % inhibition male (individual replicates) R3): 98.4%
–	–	8.29 µM	1.8 µM	COc1c(C2CCN(CCCCNC(=O)c3ccc(-c4ccc(Cl)cc4)c(OCCN(C)C)c3)CC2)ccc2c1CCCC2 [TCMDC-134371]	0.69	–	–	–	–	–	5.71 µM	3.17	–	–	–	–	90.2%	90.8%	96.4%	89.7%	Average inhibition male (%) ([2]; 2µM, average of replicates): 98.8%; % inhibition male (individual replicates) R1 ([2]; 2µM, replicate R1): 97.3%; % inhibition male (individual replicates) R3 ([2]; 2µM, replicate R3): 99.5%; % inhibition male (individual replicates) R4 ([2]; 2µM, replicate R4): 100.2%
> 10 µM	1.38 µM	–	–	COc1cc2c(cc1S(=O)(=O)c1ccc(COc3ccc(C(F)(F)F)cc3)cc1)CNCC2.Cl [TCMDC-134479]	1.66	–	–	–	–	–	16.6 µM	11.99	–	–	–	–	–	–	–	–	inhibition at 2 µM ([1]; Plasmodium falciparum, PfDGFA at 2µM, average of replicates, read-out: Average inhibition female (%)): 10%; inhibition at 2 µM ([1]; Plasmodium falciparum, PfDGFA at 2µM, replicate R1, read-out: % inhibition female (individual replicates) R1): 16.9%; inhibition at 2 µM ([1]; Plasmodium falciparum, PfDGFA at 2µM, replicate R2, read-out: % inhibition female (individual replicates) R2): 9.1%; inhibition at 2 µM ([1]; Plasmodium falciparum, PfDGFA at 2µM, replicate R3, read-out: % inhibition female (individual replicates) R3): -0.43%; inhibition at 2 µM ([1]; Plasmodium falciparum, PfDGFA at 2µM, replicate R4, read-out: % inhibition female (individual replicates) R4): 14.6%; HitlevelF ([1]; 2µM): 0; inhibition at 2 µM ([2]; Plasmodium falciparum, PfDGFA at 2µM, average of replicates, read-out: Average inhibition male (%)): 89.2%; inhibition at 2 µM ([2]; Plasmodium falciparum, PfDGFA at 2µM, replicate R1, read-out: % inhibition male (individual replicates) R1): 89.3%; inhibition at 2 µM ([2]; Plasmodium falciparum, PfDGFA at 2µM, replicate R2, read-out: % inhibition male (individual replicates) R2): 88%; inhibition at 2 µM ([2]; Plasmodium falciparum, PfDGFA at 2µM, replicate R3, read-out: % inhibition male (individual replicates) R3): 76%; inhibition at 2 µM ([2]; Plasmodium falciparum, PfDGFA at 2µM, replicate R4, read-out: % inhibition male (individual replicates) R4): 104%; HitlevelM ([2]; 2µM): 4
–	–	–	0.32 µM	CC(C#N)Cc1ccc(-c2cnc(N)c3cc(-c4ccnc(N)n4)ccc23)cc1 (centres unmarked) [TCMDC-134547]	0.24	–	–	–	–	–	2.39 µM	7.45	–	–	–	–	–	–	–	–	Average inhibition female (%) [1, 12]: 0.03%; % inhibition female (individual replicates) R1 ([1]; PfDGFA at 2µM, replicate R1): 9.4%; % inhibition female (individual replicates) R3 ([1]; PfDGFA at 2µM, replicate R3): -8.0%; % inhibition female (individual replicates) R4 ([1]; PfDGFA at 2µM, replicate R4): 0.7%; HitlevelF ([1]; 2µM): 0; Average inhibition male (%) [2, 12]: 85.1%; % inhibition male (individual replicates) R1 ([2]; PfDGFA at 2µM, replicate R1): 91.7%; % inhibition male (individual replicates) R3 ([2]; PfDGFA at 2µM, replicate R3): 80.2%; % inhibition male (individual replicates) R4 ([2]; PfDGFA at 2µM, replicate R4): 74.9%; HitlevelM ([2]; 2µM): 4
–	–	3.8 µM	1.56 µM	COc1cccc(OC)c1CN1CCC(N(C)CCCCCCCCCN2CCC(OC(=O)Nc3ccccc3-c3ccccc3)CC2)CC1 [TCMDC-134690]	0.8	–	–	–	–	–	3.03 µM	1.95	–	–	–	–	49.9%	26.2%	20.7%	73.0%	Average inhibition male (%) ([2]; 2µM, average of replicates): 94.5%; % inhibition male (individual replicates) R1 ([2]; 2µM, replicate R1): 97.5%; % inhibition male (individual replicates) R3 ([2]; 2µM, replicate R3): 83.2%; % inhibition male (individual replicates) R4 ([2]; 2µM, replicate R4): 100.9%

Structure (SMILES)	IC50 ([1]; Plasmodium falciparum)	IC50 ([2]; Plasmodium falciparum)	IC50 [1]	IC50 [2]	Selectivity ratio F [1]	inhibition at 2 µM [1, 3]	inhibition at 2 µM [1, 4]	inhibition at 2 µM [1, 5]	inhibition at 2 µM [1, 6]	inhibition at 2 µM [1, 7]	Tox50 (HepG2 cells)	Selectivity Ratio M [2]	inhibition at 2 µM [2, 8]	inhibition at 2 µM [2, 9]	inhibition at 2 µM [2, 10]	inhibition at 2 µM [2, 11]	Average inhibition female (%) ([1]; 2µM, average of replicates)	% inhibition female (individual replicates) R1 ([1]; 2µM, replicate R1)	% inhibition female (individual replicates) R3 ([1]; 2µM, replicate R3)	% inhibition female (individual replicates) R4 ([1]; 2µM, replicate R4)	other results
Cc1cccc(Nc2nc(N[C@@H]3CCCNC3)nc3cc[nH]c(=O)c23)c1.O=C(O)C(F)(F)F [TCMDC-134835]	7.69 µM	0.21 µM	–	–	0.58	-0.142%	6.3%	4.6%	-8.3%	-3.2%	4.45 µM	21.63	97.3%	96.8%	100%	94.9%	–	–	–	–	–
